Assays:
[1] = Effect of treatment rate on PFAS removal from synthetic AFFF wastewater, NMR (Example 4)
Description: Dimethyldimyristylammonium Bromide was tested in synthetic AFFF wastewater to determine if removal efficiency of the PFAS is affected by treatment rate. The treatment compound was added at 2%, 3%, and 4% w/w loading to AFFF wastewater. Solids were separated out via centrifugation and the solution was analyzed by NMR. […] FIG. 5 is the NMR spectra of each solution after treatment. […] As quat loading increased, the total area under the peaks was reduced. In the sample with 4% dimethyldioctadecylammonium bromide loading, total peak area was reduced by 90%.

[2] = Solubility in water
[3] = PFAS removal kinetics in PFAS-contaminated field sample, LC-QTOF (Example 6); conditions: 0.01% treatment; aliquots at 0, 5, 10, 30, 90 minutes
Description: To determine PFAS removal kinetics, a PFAS-contaminated field sample was treated with dimethyldioctadecylammonium bromide. Aliquots were pulled at timed intervals and tested for remaining PFAS content. To a polypropylene bottle, 1000 mL of approximately 4 ppm PFAS-contaminated water was added to a 1 L HDPE bottle with a Teflon stir bar. The sample was stirred at 500 RPM for 10 minutes prior to the start of the experiment. To a 50 mL centrifuge tube, 20 mL aliquots were collected at 0, 5, 10, 30, and 90 minutes following treatment with 0.01%. Each sample was centrifuged to remove any remaining solids and passed through 0.45 micron filter prior to analysis by LC-QTOF. […] Subsequent PFAS removal was noted but minimal.

[4] = Short chain PFAS standard treated with 2% quat: all PFAS (Example 5)
Description: A standard with approximately 1000 ppt each of PFOA, perfluoro-n-pentanoic acid (PFPeA), and perfluorobutane sulfonic acid (PFBS) was prepared via serial dilution and treated with 2% dimethyldioctadecylammonium bromide in technical triplicate. Samples were centrifuged and the liquid was filtered into a new centrifuge tube using a 0.45 micron syringe filter. Table 2 indicates the concentration of each PFAS after treatment.

CCCCCCCCCCCCCC[N+](C)(C)CCCCCCCCCCCCCC.[Br-] [Dimethyldimyristylammonium bromide, dimethyldimyristylammonium bromide]
Concentration of remaining PFAS as concentration of quaternary ammonium compound increased ([1]; 2%, 3%, and 4% w/w loading): decreased

CCCCCCCCCCCCCCCCCC[N+](C)(C)CCCCCCCCCCCCCCCCCC.[Br-] [Dimethyldioctadecylammonium bromide, dimethyldioctadecylammonium bromide]
Solubility in water [2]: nearly insoluble in water
Reduction of total NMR peak area ([1]; 4% w/w loading): 90%
Remaining PFAS content between the T=0 and T=5 sample [3]: rapid decrease
Reduction in all PFAS concentrations [4]: > 99.87%
